pIC50: −log10 of the molar value.

Chain of HSD17B13 (Q7Z5P4 20-300): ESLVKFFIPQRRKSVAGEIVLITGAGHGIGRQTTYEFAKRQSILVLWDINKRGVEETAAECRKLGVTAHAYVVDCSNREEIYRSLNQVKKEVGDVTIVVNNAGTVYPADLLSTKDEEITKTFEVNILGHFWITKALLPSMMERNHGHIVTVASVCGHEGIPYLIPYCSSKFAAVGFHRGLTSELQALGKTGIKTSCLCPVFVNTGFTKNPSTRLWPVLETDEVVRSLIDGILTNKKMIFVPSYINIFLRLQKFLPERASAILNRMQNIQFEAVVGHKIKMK

For the test, the target named is HSD17B13 (Homo sapiens (Human), UniProt Q7Z5P4). Description: LC/MS estrone detection assay for HSD17B13 activity (estradiol to estrone). It counts as biochemical. Particulars: estradiol substrate, LC-MS/MS estrone detection. The procedure:
The liquid chromatography/mass spectrometry (LC/MS) estrone detection assay monitors the conversion of estradiol to estrone by HSD17B13. This assay was undertaken in a 96 wp format (Eppendorf deep well Plate 96/500) in an 80 μl reaction volume containing: 4 μM of Estradiol (E2; Cayman; Ser. No. 10/006,315), 6 mM NAD+(Sigma; #N0623) and 30 nM HSD17B13 enzyme (in-house; E. coli expressed His-tagged, purified, soluble protein) in a reaction containing 1M potassium phosphate buffer pH 7.4, with 0.5% vehicle (DMSO). Reactions were incubated for 2 hours at 26.5° C., and estradiol (E2) conversion to estrone (E1) was quantitated by LC-MS/MS based analyte detection for both E2 and E1 using LCMS grade reagents.
Reactions were terminated by the addition of two volumes of acetonitrile (MeCN; LCMS grade; CAS #75/05/8) containing deuterated (D4)-E1 used as internal standard (Clear Synth; #CS-T-54273; 500 ng/mL final concentration). Samples were applied to pre-prepared Bond Elut-C18 extraction cartridges (3 mL; Agilent; Ser. No. 12/102,028), washed and eluted in MeCN. Eluates were dried under nitrogen and re-suspended in 60% methanol (LCMS grade methanol; CAS #67/56/1) before submission for analysis. Aqueous linearity for E2 and E1 were included for quantification.
Analysis of samples was undertaken on a XBridge BEH C18 column (Waters; #186003033) using 0.1% Diethyl Amine in MeCN (mobile phase A; DEA CAS #109-89-7) and 0.1% Diethyl Amine in milli-Q water (mobile phase B) in a 3 min gradient allowing 25% B. Analytes were detected in negative mode using MRM analysis, with E2 having a RT of 1.85 min and E1 having a RT of 2 min. Activity of the enzyme, in the absence of NAD+, was used to evaluate specificity of conversion. Enzyme activity in the presence of test samples was expressed as a percentage of the uninhibited enzyme activity, and plotted versus inhibitor concentration. Non-linear regression was performed using a four-parameter logistic model and GraphPad Prism software (GraphPad Software, La Jolla, CA). All assessments were undertaken in duplicate evaluations and pooled during extraction process and subsequently injected as duplicates for LC-MS/MS analysis.
For orientation: pIC50 means −log10 of the IC50, conventionally taken in molar units. A high value points to a small IC50. `O=C(Nc1scnc1C(=O)NC1(c2ccccc2C(F)(F)F)CC1)c1cc(Cl)c(O)c(Cl)n1` [Example 24, 5-(4,6-dichloro-5-hydroxypicolinamido)-N-(1-(2-(trifluoromethyl)phenyl)cyclopropyl)thiazole-4-carboxamide] had a pIC50 of 6.30 to 7.00.

Consider `CN(Cc1ccccc1C(F)(F)F)C(=O)c1ncsc1NC(=O)c1cc(Cl)c(O)c(Cl)n1` [Example 25, 5-(4,6-dichloro-5-hydroxypicolinamido)-N-methyl-N-(2-(trifluoromethyl)benzyl)thiazole-4-carboxamide], for which the pIC50 is 6.30 to 7.00.

As to `Cc1nc(C(=O)NCc2ccccc2C(F)(F)F)c(NC(=O)c2cc(Cl)c(O)c(Cl)n2)s1` [Example 26, 5-(4,6-dichloro-5-hydroxypicolinamido)-2-methyl-N-(2-(trifluoromethyl)benzyl)thiazole-4-carboxamide], the pIC50 is 6.30 to 7.00.

The compound `Cc1nc(C(=O)NCc2ccccc2C(F)(F)F)c(NC(=O)c2cc(Cl)c(O)c(Cl)c2)s1` [Example 27, 5-(3,5-dichloro-4-hydroxybenzamido)-2-methyl-N-(2-(trifluoromethyl)benzyl)thiazole-4-carboxamide] had a pIC50 of 6.30 to 7.00.

Turning to `O=C(Nc1ncc(C(=O)NCc2ccccc2C(F)(F)F)s1)c1cc(Cl)c(O)c(Cl)n1` [Example 28, 2-(4,6-dichloro-5-hydroxypicolinamido)-N-(2-(trifluoromethyl)benzyl)thiazole-5-carboxamide], the negative logarithm of the IC50 (pIC50) was 5.00 to 6.00.

As for `Cc1nsc(NC(=O)c2cc(Cl)c(O)c(Cl)n2)c1C(=O)NCc1ccccc1OC(F)(F)F` [Example 29, 5-(4,6-dichloro-5-hydroxypicolinamido)-3-methyl-N-(2-(trifluoromethoxy)benzyl)isothiazole-4-carboxamide], the pIC50 is 6.30 to 7.00.

The compound `O=C(Nc1scnc1C(=O)NCC12CC3CC(CC(C3)C1)C2)c1cc(Cl)c(O)c(Cl)n1` [Example 30, N-(adamantan-1-ylmethyl)-5-(4,6-dichloro-5-hydroxypicolinamido)thiazole-4-carboxamide] gave a pIC50 of 6.30 to 7.00.

Take `O=C(Nc1scnc1C(=O)N1CCC2(CCCCC2)C1)c1cc(Cl)c(O)c(Cl)n1` [Example 31, N-(4-(2-azaspiro[4.5]decane-2-carbonyl)thiazol-5-yl)-4,6-dichloro-5-hydroxypicolinamide]: the pIC50 was 5.00 to 6.00.

For `O=C(Nc1scnc1C(=O)NC1(c2ccccc2)CCC1)c1cc(Cl)c(O)c(Cl)n1` [Example 32, 5-(4,6-dichloro-5-hydroxypicolinamido)-N-(1-phenylcyclobutyl)thiazole-4-carboxamide], the pIC50 was not below 7.00.

On to `O=C(Nc1scnc1C(=O)NCc1c(F)cccc1F)c1cc(Cl)c(O)c(Cl)n1` [Example 33, 5-(4,6-dichloro-5-hydroxypicolinamido)-N-(2,6-difluorobenzyl)thiazole-4-carboxamide], for which the pIC50 was 6.30 to 7.00.

`CC(C)(C)CCNC(=O)c1ncsc1NC(=O)c1cc(Cl)c(O)c(Cl)n1` [Example 35, 5-(4,6-dichloro-5-hydroxypicolinamido)-N-(3,3-dimethylbutyl)thiazole-4-carboxamide]: the pIC50 was 6.30 to 7.00.

For `O=C(Nc1scnc1C(=O)NCC1(F)CC1)c1cc(Cl)c(O)c(Cl)n1` [Example 36, 5-(4,6-dichloro-5-hydroxypicolinamido)-N-((1-fluorocyclopropyl)methyl)thiazole-4-carboxamide], the pIC50 was 5.00 to 6.00.

`O=C(Nc1scnc1C(=O)NC1CCC2(CC1)CNC2)c1cc(Cl)c(O)c(Cl)n1` [Example 37, 5-(4,6-dichloro-5-hydroxypicolinamido)-N-(2-azaspiro[3.5]nonan-7-yl)thiazole-4-carboxamide] showed a pIC50 of less than 5.00.

In the case of `Cc1nsc(NC(=O)c2cc(Cl)c(O)c(Cl)n2)c1C(=O)NCc1ccccc1C(F)(F)F` [Example 38, 5-(4,6-dichloro-5-hydroxypicolinamido)-3-methyl-N-(2-(trifluoromethyl)benzyl)isothiazole-4-carboxamide], the pIC50 is not below 7.00.

Regarding `CC(C)CCNC(=O)c1ncsc1NC(=O)c1cc(Cl)c(O)c(Cl)n1` [Example 39, 5-(4,6-dichloro-5-hydroxypicolinamido)-N-isopentylthiazole-4-carboxamide], the pIC50 is 6.30 to 7.00.

In the case of `O=C(Nc1scnc1C(=O)NC12C[C@H]3C[C@@H](C1)C[C@@H](C2)C3)c1cc(Cl)c(O)c(Cl)n1` [Example 40, N-((3s,5s,7s)-adamantan-1-yl)-5-(4,6-dichloro-5-hydroxypicolinamido)thiazole-4-carboxamide], the negative-log IC50 (pIC50) was not below 7.00.

Take `O=C(Nc1scnc1C(=O)NCc1ccc2c(c1)OCO2)c1cc(Cl)c(O)c(Cl)n1` [Example 41, N-(benzo[d][1,3]dioxol-5-ylmethyl)-5-(4,6-dichloro-5-hydroxypicolinamido)thiazole-4-carboxamide]: the pIC50 was 6.30 to 7.00.

With `CS(=O)(=O)c1ccccc1CNC(=O)c1ncsc1NC(=O)c1cc(Cl)c(O)c(Cl)n1` [Example 42, 5-(4,6-dichloro-5-hydroxypicolinamido)-N-(2-(methylsulfonyl)benzyl)thiazole-4-carboxamide], the pIC50 was 6.30 to 7.00.

`O=C(Nc1scnc1C(=O)NC1CCOc2ccccc21)c1cc(Cl)c(O)c(Cl)n1` (stereo not drawn) [Example 43, N-(chroman-4-yl)-5-(4,6-dichloro-5-hydroxypicolinamido)thiazole-4-carboxamide] showed a pIC50 of 6.30 to 7.00.

Take `O=C(Nc1scnc1C(=O)N1CCC(C(F)(F)F)CC1)c1cc(Cl)c(O)c(Cl)n1` [Example 44, 4,6-dichloro-5-hydroxy-N-(4-(4-(trifluoromethyl)piperidine-1-carbonyl)thiazol-5-yl)picolinamide]: the pIC50 is 6.00 to 6.30.

Turning to `CC(C)(C)CCNC(=O)c1ncsc1NC(=O)c1cc(Cl)c(O)c(Cl)c1` [Example 46, 5-(3,5-dichloro-4-hydroxybenzamido)-N-(3,3-dimethylbutyl)thiazole-4-carboxamide], the pIC50 was 6.30 to 7.00.

As for `CC(C)n1cc(C(=O)NCc2ccccc2C(F)(F)F)c(NC(=O)c2cc(Cl)c(O)c(Cl)n2)n1` [Example 48, 4,6-dichloro-5-hydroxy-N-(1-isopropyl-4-((2-(trifluoromethyl)benzyl)carbamoyl)-1H-pyrazol-3-yl)picolinamide], the pIC50 is 6.30 to 7.00.

Compound `O=C(Nc1nn(CC(F)(F)F)cc1C(=O)NCc1ccccc1C(F)(F)F)c1cc(Cl)c(O)c(Cl)c1` [Example 49, 3-(3,5-dichloro-4-hydroxybenzamido)-1-(2,2,2-trifluoroethyl)-N-(2-(trifluoromethyl)benzyl)-1H-pyrazole-4-carboxamide] gave a pIC50 of 6.30 to 7.00.

With `O=C(Nc1nn(CC(F)(F)F)cc1C(=O)NCc1ccccc1C(F)(F)F)c1cc(Cl)c(O)c(Cl)n1` [Example 50, 4,6-dichloro-5-hydroxy-N-(1-(2,2,2-trifluoroethyl)-4-((2-(trifluoromethyl)benzyl)carbamoyl)-1H-pyrazol-3-yl)picolinamide], the pIC50 was 6.30 to 7.00.

Compound `O=C(Nc1sc(-c2cccnc2)nc1C(=O)NCc1ccccc1C(F)(F)F)c1cc(Cl)c(O)c(Cl)n1` [Example 51, 5-(4,6-dichloro-5-hydroxypicolinamido)-2-(pyridin-3-yl)-N-(2-(trifluoromethyl)benzyl)thiazole-4-carboxamide] gave a pIC50 of 6.30 to 7.00.

Consider `O=C(Nc1cccnc1C(=O)NCc1ccccc1OC(F)(F)F)c1cc(Cl)c(O)c(Cl)n1` [Example 52, 4,6-dichloro-5-hydroxy-N-(2-((2-(trifluoromethoxy)benzyl)carbamoyl)pyridin-3-yl)picolinamide], for which the pIC50 is 6.30 to 7.00.

As for `Cn1cc(C(=O)NCCC(C)(C)C)c(NC(=O)c2cc(Cl)c(O)c(Cl)c2)n1` [Example 53, 3-(3,5-dichloro-4-hydroxybenzamido)-N-(3,3-dimethylbutyl)-1-methyl-1H-pyrazole-4-carboxamide], the pIC50 was 6.00 to 6.30.

The compound `O=C(Nc1nn(C2CC2)cc1C(=O)NCc1ccccc1C(F)(F)F)c1cc(Cl)c(O)c(Cl)n1` [Example 54, 4,6-dichloro-N-(1-cyclopropyl-4-((2-(trifluoromethyl)benzyl)carbamoyl)-1H-pyrazol-3-yl)-5-hydroxypicolinamide] had a pIC50 of 5.00 to 6.00.

With `O=C(Nc1nn(C(F)F)cc1C(=O)NCc1ccccc1C(F)(F)F)c1cc(Cl)c(O)c(Cl)c1` [Example 55, 3-(3,5-dichloro-4-hydroxybenzamido)-1-(difluoromethyl)-N-(2-(trifluoromethyl)benzyl)-1H-pyrazole-4-carboxamide], the pIC50 was 6.30 to 7.00.

Compound `O=C(Nc1cccc2c1c(=O)n(Cc1ccccc1C(F)(F)F)c(=O)n2C1CC1)c1cc(Cl)c(O)c(Cl)n1` [Example 56, 4,6-dichloro-N-(1-cyclopropyl-2,4-dioxo-3-(2-(trifluoromethyl)benzyl)-1,2,3,4-tetrahydroquinazolin-5-yl)-5-hydroxypicolinamide] had a pIC50 of 6.00 to 6.30.

The values are drawn from patent US20250100993A1, “2-SUBSTITUTED THIAZOLE HSD17B13 INHIBITORS AND USES THEREOF” (Inipharm, Inc., priority 2022, published 2025).
